In the assay the target is T1, Retinoic acid receptor RXR-beta (Homo sapiens) (UniProt P28702).
T1 sequence (whole entry): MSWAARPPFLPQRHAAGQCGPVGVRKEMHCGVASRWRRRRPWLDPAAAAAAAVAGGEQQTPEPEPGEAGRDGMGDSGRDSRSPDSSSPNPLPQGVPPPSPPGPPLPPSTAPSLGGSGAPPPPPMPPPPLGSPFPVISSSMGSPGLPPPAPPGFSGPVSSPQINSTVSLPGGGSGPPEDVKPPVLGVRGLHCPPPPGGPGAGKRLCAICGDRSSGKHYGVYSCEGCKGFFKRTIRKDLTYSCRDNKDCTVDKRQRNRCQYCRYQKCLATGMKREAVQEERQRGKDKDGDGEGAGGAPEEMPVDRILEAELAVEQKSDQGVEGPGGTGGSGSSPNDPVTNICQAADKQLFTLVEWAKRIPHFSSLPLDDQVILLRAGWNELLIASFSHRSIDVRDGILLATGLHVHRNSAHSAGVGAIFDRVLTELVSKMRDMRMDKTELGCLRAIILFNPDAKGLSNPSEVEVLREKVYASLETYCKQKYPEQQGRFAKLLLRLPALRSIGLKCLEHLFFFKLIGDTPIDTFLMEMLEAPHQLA
Kind of assay: Agonist activity at human RXRbeta expressed in human HeLa cells assessed as relative luminescence units by luciferase assay relative to control. The format is functional, cell-based.

Calls of active or inactive are those of the source. The rule behind the calls is not given here.

Turning to `CC(=C/C=C/C(C)=C/C(=O)O)/C=C/C1=C[C@H](C)CC[C@H]1C(C)C`, the result was Active.

(Values after ChEMBL document CHEMBL1142549, “New retinoid chemotypes: 9-cis-retinoic acid analogs with hydrophobic rings derived from terpenes as selective RAR agonists” (Bioorg Med Chem, 2008).)
